Data reported in US11731927B2, “Cocrystals of ubiquinol and compositions comprising them” (Center for Intelligent Research in Crystal Engineering, S.L., priority 2018, dated 2023).

Legend:
[1] = Stability study, comparative ubiquinol vs cocrystals: storage in a chamber, periodic analysis for ubiquinone and the form detected; assay type: physicochemical; conditions: for stability at 25° C. measured by controlling the moment when ubiquinone was detected: "<" ubiquinone detected at least after the indicated days, ">" ubiquinone not detected yet
Method: Powder X-Ray diffraction (PXRD) analyses were performed by sandwiching the powder samples between polyester films of 10 micrometres of thickness or polyamide (kapton) films of 15 micrometres of thickness and analysed in a PANalytical X′Pert PRO MPD q/q powder diffractometer of 240 millimetres of radius, in a configuration of convergent beam with a focalizing mirror and a flat sample transmission geometry, in the following experimental conditions: Cu Kα radiation (λ=1.5406 Å); Work power: 45 kV and 40 mA; Incident beam slits defining a beam height of 0.4 millimetres; Incident and diffracted beam 0.02 radians Soller slits; PIXcel detector: Active length=3.347°; 2θ/θ scans from 2 to 40° 2θ with a step size of 0.026° 2θ and a measuring time of 76 seconds per step.
The stability of the different forms has been studied under two experimental conditions. The samples were stored under both conditions inside a Series FD Binder chamber and they were analyzed periodically: • condition A: 25° C. and 57% of relative humidity; • condition B: 40° C. and 75% of relative humidity.
A saturated solution of sodium bromide salt (57% RH) and a saturated solution of sodium chloride (75% RH) were used to control relative humidity.
75% HR by indicating the form detected after the mentioned days. No ubiquinone was detected at least after 14 days.

[2] = as above; assay type: physicochemical; conditions: relative humidity not controlled, "<" ubiquinone detected at least after the indicated days, ">" ubiquinone not detected yet
[3] = 25° C.-57% HR, 435 days, ^1: low crystallinity
[4] = 40° C.-75% HR, 14 days, "—^1" (footnote *): the sample absorbed moisture showing a liquid texture
[5] = 40° C.-75% HR, 51 days, ^1: low crystallinity

Molecule | form detected ([1]; 25° C.-57% HR, 7 days) | form detected ([1]; 25° C.-57% HR, 14 days) | form detected ([1]; 25° C.-57% HR, 51 days) | form detected ([1]; 25° C.-57% HR, 119 days) | form detected [1, 3] | form detected ([1]; 25° C.-57% HR, time 0) | stability at 25° C. measured by controlling the moment when ubiquinone was detected ([1]; 25° C.-57% HR) [days] | form detected ([1]; 40° C.-75% HR, 7 days) | form detected [1, 4] | form detected [1, 5] | form detected ([1]; 40° C.-75% HR, time 0) | stability at 25° C. measured by controlling the moment when ubiquinone was detected [2] [days] | further results
COc1c(O)c(C)c(CC=C(C)CCC=C(C)CCC=C(C)CCC=C(C)CCC=C(C)CCC=C(C)CCC=C(C)CCC=C(C)CCC=C(C)CCC=C(C)C)c(O)c1OC.O=C(O)c1cc(O)cc(O)c1 [P58-V, Cocrystal of Ubiquinol and 3,5-dihydroxybenzoic Acid] | – | – | – | – | – | – | – | – | – | – | – | – | stability ([1]; compared with cocrystal P58-III): expected to be similar to cocrystal P58-III
COc1c(O)c(C)c(CC=C(C)CCC=C(C)CCC=C(C)CCC=C(C)CCC=C(C)CCC=C(C)CCC=C(C)CCC=C(C)CCC=C(C)CCC=C(C)C)c(O)c1OC.O=C(O)c1cccc(O)c1 [P58-VI, Cocrystal of Ubiquinol and 3-Hydroxybenzoic Acid] | P58-VI | P58-VI | P58-VI | P58-VI | P58-VI^1 | P58-VI | >434 | P58-VI | P58-VI | Ubiquinone^1 | P58-VI | >64 | form detected ([1]; 25° C.-57% HR, 288 days): P58-VI
Cocrystal Hydrate of Ubiquinol and 3,4-dihydroxybenzoic Acid [P58-III] | P58-III | P58-III | P58-III | P58-III | P58-III | P58-III | – | P58-III | P58-III | P58-III | P58-III | – | form detected ([1]; 25° C.-57% HR, 84 days): P58-III; form detected ([1]; 25° C.-57% HR, 235 days): P58-III; form detected ([1]; 25° C.-57% HR, 405 days): P58-III; form detected ([1]; 25° C.-57% HR, 551 days, ^1: low crystallinity): P58-III^1; form detected ([1]; 40° C.-75% HR, 235 days): Ubiquinone
Ubiquinol [reference compound] | Form A | mixture Form A and Form B | – | – | – | Form A | <26 | Form B | – | – | Form A | <50 | form detected ([1]; 25° C.-57% HR, 26 days): mixture Form B and Ubiquinone; form detected ([1]; 25° C.-57% HR, 37 days): mixture Form B and Ubiquinone; form detected ([1]; 25° C.-57% HR, 62 days, ^2: analyzed by 1H-NMR, confirms presence of Ubiquinone): mixture Form B and Ubiquinone^2; form detected ([1]; 25° C.-57% HR, 130 days): mixture Form B and Ubiquinone; form detected ([1]; 25° C.-57% HR, 300 days): mixture Form B and Ubiquinone; form detected ([1]; 25° C.-57% HR, 446 days): Ubiquinone (low crystallinity)
